Assay results reported in publication PMC10247784, “Physiological activation of human and mouse bitter taste receptors by bile acids” (Communications Biology, 2023).

Molecular target: T1, human TAS2R14 (Homo sapiens, UniProt Q9NYV8)
T1 construct: expressed in transfected cells; host or cells: HEK293T-Gα16gust44
T1 sequence (Q9NYV8 1-317): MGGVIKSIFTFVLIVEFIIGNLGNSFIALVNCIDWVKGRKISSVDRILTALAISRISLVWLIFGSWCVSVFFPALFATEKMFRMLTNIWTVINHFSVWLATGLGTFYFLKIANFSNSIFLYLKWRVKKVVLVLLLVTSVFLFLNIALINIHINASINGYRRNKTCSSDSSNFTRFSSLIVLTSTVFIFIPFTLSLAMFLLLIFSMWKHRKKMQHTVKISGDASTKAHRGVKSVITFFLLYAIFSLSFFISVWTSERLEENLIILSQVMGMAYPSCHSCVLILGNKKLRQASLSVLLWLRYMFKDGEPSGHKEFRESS
Assay: Calcium imaging assay (FLIPR), HEK293T-Gα16gust44 cells transfected with human TAS2R14
Assay type: cell-based
Conditions: for RLU: TAS2R14 trace
Procedure: This set of bile acids was chosen because of their commercial availability in high purities, their diversity within the class of bile acids and their previous detection and quantitation in human blood. Stock solutions were prepared in DMSO.
As basal growth medium for the HEK293T-Gα16gust44 cell line[17],[59] served Dulbecco’s modified eagle medium (DMEM) (Thermo Fisher Scientific, Darmstadt, Germany) supplemented with 10 % fetal bovine serum (Sigma-Aldrich, Steinheim, Germany), 2 mM L-glutamine (Sigma-Aldrich, Steinheim, Germany), 100 units/ml penicillin (Sigma Aldrich, Steinheim, Germany) and 100 µg/ml streptomycin (Sigma Aldrich, Steinheim, Germany). Growth conditions were 37 °C, 5 % CO2 and saturated air-humidity[60].
HEK293T-Gα16gust44 cells were seeded on poly-D-lysine (10 µg/ml) coated 96-well plates to reach a confluence of 40-60 % the next day. For transient transfection 150 ng of plasmid DNA containing the receptor of interest and 0.3 µl lipofectamine 2000 (Thermo Fisher Scientific, Darmstadt, Germany) per well were used and transfection took place according to the manual of lipofectamine 2000. […] The empty vector DNA (mock) was transfected as negative control[14],[41].
Cells were loaded using the calcium-sensitive fluorescent dye Fluo-4-AM (Abcam, Cambridge, Great Britain) in the presence of 2.5 mM probenecid (Sigma-Aldrich, Steinheim, Germany) the day after transfection[13],[41]. 1 h after loading, cells were washed with C1 buffer using a BioTek Cell Washer, incubated in the dark for half an hour and washed again. For automated agonist application and measurement of fluorescence changes, a FLIPR^TETRA device (Molecular Devices, San José, United States) was used. Viability of cells was tested by application of 100 nM Somatostatin 14 (Bachem, Bubendorf, Switzerland)[42].
Measured data were negative control corrected by subtracting the signal of the mock-transfected cells and exported to Microsoft Excel using the FLIPR software ScreenWorks 4.2. In Microsoft Excel software, standardization of maximum fluorescence intensities to the basal fluorescence and normalization to the buffer-only control was done to calculate the relative fluorescence changes (ΔF/F).
Initial screening experiments performed in duplicate wells were confirmed by at least one replication and representative traces were selected for display. All dose-response relationships were determined by three independent experiments (biological replicates) performed in duplicates (technical replicates). Threshold concentrations, defined as lowest substance concentrations leading to statistically significant elevated fluorescence changes in receptor-transfected cells compared with empty vector-transfected cells, were determined using SigmaPlot with Student’s t-test to evaluate statistical significance (p < 0.01).

C[C@H](CCC(=O)O)[C@H]1CC[C@H]2[C@@H]3[C@H](O)C[C@@H]4C[C@H](O)CC[C@]4(C)[C@H]3CC[C@]12C [Chenodeoxycholic Acid, chenodeoxycholic acid]
RLU (Time (s) 88.797 (Chenodeoxycholic Acid 88.781)): 638.796 RLU | RLU (Time (s) 90.797 (Chenodeoxycholic Acid 90.781)): 637.499 RLU | RLU (Time (s) 92.797 (Chenodeoxycholic Acid 92.781)): 628.913 RLU | RLU (Time (s) 94.797 (Chenodeoxycholic Acid 94.781)): 638.53 RLU | RLU (Time (s) 96.797 (Chenodeoxycholic Acid 96.781)): 632.564 RLU | RLU (Time (s) 98.797 (Chenodeoxycholic Acid 98.781)): 628.21 RLU | RLU (Time (s) 100.797 (Chenodeoxycholic Acid 100.781)): 613.502 RLU | RLU (Time (s) 102.797 (Chenodeoxycholic Acid 102.781)): 604.41 RLU | RLU (Time (s) 104.797 (Chenodeoxycholic Acid 104.781)): 599.892 RLU | RLU (Time (s) 106.797 (Chenodeoxycholic Acid 106.781)): 563.223 RLU | RLU (Time (s) 108.797 (Chenodeoxycholic Acid 108.781)): 594.081 RLU | RLU (Time (s) 110.797 (Chenodeoxycholic Acid 110.781)): 586.278 RLU | RLU (Time (s) 112.797 (Chenodeoxycholic Acid 112.781)): 550.791 RLU | RLU (Time (s) 114.797 (Chenodeoxycholic Acid 114.781)): 544.911 RLU | RLU (Time (s) 116.797 (Chenodeoxycholic Acid 116.781)): 535.277 RLU | RLU (Time (s) 118.797 (Chenodeoxycholic Acid 118.781)): 521.394 RLU | RLU (Time (s) 120.797 (Chenodeoxycholic Acid 120.781)): 516.9 RLU | RLU (Time (s) 122.797 (Chenodeoxycholic Acid 122.781)): 506.351 RLU | RLU (Time (s) 124.797 (Chenodeoxycholic Acid 124.781)): 491.947 RLU | RLU (Time (s) 126.797 (Chenodeoxycholic Acid 126.781)): 464.952 RLU | RLU (Time (s) 128.797 (Chenodeoxycholic Acid 128.781)): 465.396 RLU | RLU (Time (s) 130.797 (Chenodeoxycholic Acid 130.781)): 467.418 RLU | RLU (Time (s) 132.797 (Chenodeoxycholic Acid 132.781)): 469.949 RLU | RLU (Time (s) 134.797 (Chenodeoxycholic Acid 134.781)): 415.628 RLU | RLU (Time (s) 136.797 (Chenodeoxycholic Acid 136.781)): 432.183 RLU | RLU (Time (s) 137.562 (Taurocholic Acid 137.563, Chenodeoxycholic Acid 137.546)): 452.404 RLU | RLU (Time (s) 143.578 (Taurocholic Acid 143.563, Chenodeoxycholic Acid 143.546)): 380.071 RLU | RLU (Time (s) 149.578 (Taurocholic Acid 149.563, Chenodeoxycholic Acid 149.546)): 382.743 RLU | RLU (Time (s) 155.578 (Taurocholic Acid 155.563, Chenodeoxycholic Acid 155.546)): 336.968 RLU | RLU (Time (s) 161.578 (Taurocholic Acid 161.563, Chenodeoxycholic Acid 161.546)): 359.379 RLU | RLU (Time (s) 167.578 (Taurocholic Acid 167.563, Chenodeoxycholic Acid 167.546)): 343.975 RLU | RLU (Time (s) 173.578 (Taurocholic Acid 173.563, Chenodeoxycholic Acid 173.546)): 278.705 RLU | RLU (Time (s) 179.578 (Taurocholic Acid 179.563, Chenodeoxycholic Acid 179.546)): 300.666 RLU | RLU (Time (s) 191.578 (Taurocholic Acid 191.563, Chenodeoxycholic Acid 191.546)): 185.369 RLU | RLU (Time (s) 197.578 (Taurocholic Acid 197.563, Chenodeoxycholic Acid 197.546)): 161.87 RLU | RLU (Time (s) 209.578 (Taurocholic Acid 209.563, Chenodeoxycholic Acid 209.546)): 179.275 RLU | RLU (Time (s) 221.578 (Taurocholic Acid 221.563, Chenodeoxycholic Acid 221.546)): 182.465 RLU | RLU (Time (s) 233.578 (Taurocholic Acid 233.563, Chenodeoxycholic Acid 233.546)): 198.132 RLU | RLU (Time (s) 239.578 (Taurocholic Acid 239.563, Chenodeoxycholic Acid 239.546)): 183.585 RLU | RLU (Time (s) 245.578 (Taurocholic Acid 245.563, Chenodeoxycholic Acid 245.546)): 212.748 RLU | RLU (Time (s) 293.578 (Taurocholic Acid 293.563, Chenodeoxycholic Acid 293.546)): 209.963 RLU | RLU (Time (s) 299.578 (Taurocholic Acid 299.563, Chenodeoxycholic Acid 299.546)): 216.371 RLU | RLU (Time (s) 305.578 (Taurocholic Acid 305.563, Chenodeoxycholic Acid 305.546)): 208.994 RLU | RLU (Time (s) 311.578 (Taurocholic Acid 311.563, Chenodeoxycholic Acid 311.546)): 184.812 RLU | RLU (Time (s) 317.578 (Taurocholic Acid 317.563, Chenodeoxycholic Acid 317.546)): 189.014 RLU | RLU (Time (s) 323.578 (Taurocholic Acid 323.563, Chenodeoxycholic Acid 323.546)): 182.748 RLU | RLU (Time (s) 329.578 (Taurocholic Acid 329.563, Chenodeoxycholic Acid 329.546)): 195.394 RLU | RLU (Time (s) 335.578 (Taurocholic Acid 335.563, Chenodeoxycholic Acid 335.546)): 190.135 RLU | RLU (Time (s) 341.578 (Taurocholic Acid 341.563, Chenodeoxycholic Acid 341.546)): 187.029 RLU | RLU (Time (s) 347.578 (Taurocholic Acid 347.563, Chenodeoxycholic Acid 347.546)): 164.841 RLU | RLU (Time (s) 353.578 (Taurocholic Acid 353.563, Chenodeoxycholic Acid 353.546)): 198.762 RLU | RLU (Time (s) 359.578 (Taurocholic Acid 359.563, Chenodeoxycholic Acid 359.546)): 181.785 RLU | Activation threshold concentration TAS2R14 (lowest concentration with significantly increased fluorescence vs empty vector (p < 0.01)): 30 µM | Receptor response TAS2R14 (screening): activated
